Assay results taken from US6914045B2, “Glycopeptide antibiotics” (Wyeth Holdings Corporation, priority 2001, dated 2005).
In brackets after ≈: the same amount, converted by molar mass.

How the values were obtained:
Assay in all cases: in vitro antibacterial evaluation, MIC by broth dilution
Type in all cases: cell-based
[1] = tested on: Streptococcus sp.
Procedure, shortened: (§1)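 Following National Committee for Clinical Laboratory Standards recommendations (M7-A2), susceptibility was measured by dilution in Muller-Hinton II […]. Bacteria were seeded at 5×10^5 CFU/mL against compound concentrations from 64 down to 0.06 μg/mL.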

[2] = tested on: Staphylococcus sp.; conditions: broth dilution, 18 hours at 35° C.; for MIC Staphylococcus aureus (ATCC 29213): strain ATCC 29213; for MIC Staphylococcus aureus (GC 1131): strain GC 1131; for MIC Staphylococcus aureus (GC 3051): strain GC 3051; for MIC Staphylococcus aureus (GC 3053): strain GC 3053; for MIC Staphylococcus aureus (GC 4541): strain GC 4541; for MIC Staphylococcus aureus (GC 4542): strain GC 4542; for MIC Staphylococcus aureus-SMITH (GC 4543): strain GC 4543; for MIC Staphylococcus aureus (GC 4544): strain GC 4544; for MIC Staphylococcus aureus (GC 4545): strain GC 4545; for MIC Staphylococcus haemolyticus (GC 4546): strain GC 4546; for MIC Coagulase Negative Staphylococcus (GC 4547): strain GC 4547; for MIC Coagulase Negative Staphylococcus (GC 4548): strain GC 4548; for MIC Coagulase Negative Staphylococcus (GC 4549): strain GC 4549; for MIC Coagulase Negative Staphylococcus (GC 4551): strain GC 4551
Procedure, shortened: as §1

[3] = tested on: Enterococcus sp.
Procedure, shortened: as §1

[4] = tested on: Escherichia coli; conditions: 18 hours at 35° C.
Procedure, shortened: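 Broth dilution in Muller-Hinton II medium per NCCLS standard M7-A2, with an inoculum of 5×10^5 CFU/mL and antibiotic tested over 64-0.06 μg/mL. MIC was taken as the lowest concentration inhibiting visible growth.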

[5] = broth dilution, 18 hours at 35° C.

Molecule: Di-N-(4-tert-butylbenzyl)-cyclo[glycyl-β-methylphenylalanyl-O-(4-O-hexopyranosylhexopyranosyl)tyrosyl-3-(2-iminoimidazolidin-4-yl)seryl-3-(3-hexoopyranosyl-2-iminoimidazolidin-4-yl)serylseryl] [Example 60a]
- MIC Streptococcus agalactiae (GC 4564) [1, 5]: >128 µg/mL
- MIC Streptococcus pneumoniae (ATCC 6301) [1, 5]: >128 µg/mL
- MIC Streptococcus pneumoniae (GC 1894) [1, 5]: 64 µg/mL
- MIC Streptococcus pneumoniae (GC 4565) [1, 5]: 128 µg/mL
- MIC Streptococcus pyogenes (GC 4563) [1, 5]: >128 µg/mL
- MIC Streptococcus pneumoniae (ATCC 6301) ([1]; broth dilution, 18 hours at 35° C.; strain ATCC 6301): >128 µg/mL
- MIC Streptococcus pneumoniae (GC 1894) ([1]; broth dilution, 18 hours at 35° C.; strain GC 1894): 64 µg/mL
- MIC Streptococcus pyogenes (GC 4563) ([1]; broth dilution, 18 hours at 35° C.; strain GC 4563): >128 µg/mL
- MIC Streptococcus agalactiae (GC 4564) ([1]; broth dilution, 18 hours at 35° C.; strain GC 4564): >128 µg/mL
- MIC Streptococcus pneumoniae (GC 4565) ([1]; broth dilution, 18 hours at 35° C.; strain GC 4565): 128 µg/mL
- MIC Staphylococcus aureus (ATCC 29213) [2]: >128 µg/mL
- MIC Staphylococcus aureus (GC 1131) [2]: >128 µg/mL
- MIC Staphylococcus aureus (GC 3051) [2]: >128 µg/mL
- MIC Staphylococcus aureus (GC 3053) [2]: >128 µg/mL
- MIC Staphylococcus aureus (GC 4541) [2]: >128 µg/mL
- MIC Staphylococcus aureus (GC 4542) [2]: >128 µg/mL
- MIC Staphylococcus aureus-SMITH (GC 4543) [2]: >128 µg/mL
- MIC Staphylococcus aureus (GC 4544) [2]: >128 µg/mL
- MIC Staphylococcus aureus (GC 4545) [2]: >128 µg/mL
- MIC Staphylococcus haemolyticus (GC 4546) [2]: >128 µg/mL
- MIC Coagulase Negative Staphylococcus (GC 4547) [2]: >128 µg/mL
- MIC Coagulase Negative Staphylococcus (GC 4548) [2]: >128 µg/mL
- MIC Coagulase Negative Staphylococcus (GC 4549) [2]: >128 µg/mL
- MIC Coagulase Negative Staphylococcus (GC 4551) [2]: >128 µg/mL
- MIC Coagulase Negative Staphylococcus (GC 6257) ([2]; strain GC 6257): >128 µg/mL
- MIC Enterococcus avium (GC 4558) ([3]; Enterococcus avium (GC 4558); broth dilution, 18 hours at 35° C.): 128 µg/mL
- MIC Enterococcus faecalis (ATCC 29212) ([3]; Enterococcus faecalis (ATCC 29212); broth dilution, 18 hours at 35° C.): >128 µg/mL
- MIC Enterococcus faecalis (GC 4552) ([3]; Enterococcus faecalis (GC 4552); broth dilution, 18 hours at 35° C.): >128 µg/mL
- MIC Enterococcus faecalis (GC 4553) ([3]; Enterococcus faecalis (GC 4553); broth dilution, 18 hours at 35° C.): 128 µg/mL
- MIC Enterococcus faecalis (GC 4554) ([3]; Enterococcus faecalis (GC 4554); broth dilution, 18 hours at 35° C.): >128 µg/mL
- MIC Enterococcus faecalis (GC 6189) ([3]; Enterococcus faecalis (GC 6189); broth dilution, 18 hours at 35° C.): >128 µg/mL
- MIC Enterococcus faecium (GC 2243) ([3]; Enterococcus faecium (GC 2243); broth dilution, 18 hours at 35° C.): >128 µg/mL
- MIC Enterococcus faecium (GC 4556) ([3]; Enterococcus faecium (GC 4556); broth dilution, 18 hours at 35° C.): >128 µg/mL
- MIC Enterococcus faecium (GC 4557) ([3]; Enterococcus faecium (GC 4557); broth dilution, 18 hours at 35° C.): 128 µg/mL
- MIC Enterococcus avium (GC 4558) [3, 5]: 128 µg/mL
- MIC Enterococcus faecalis (ATCC 29212) [3, 5]: >128 µg/mL
- MIC Enterococcus faecalis (GC 2242) [3, 5]: >128 µg/mL
- MIC Enterococcus faecalis (GC 2691) [3, 5]: >128 µg/mL
- MIC Enterococcus faecalis (GC 3059) [3, 5]: >128 µg/mL
- MIC Enterococcus faecalis (GC 4552) [3, 5]: >128 µg/mL
- MIC Enterococcus faecalis (GC 4553) [3, 5]: 128 µg/mL
- MIC Enterococcus faecalis (GC 4554) [3, 5]: >128 µg/mL
- MIC Enterococcus faecalis (GC 6189) [3, 5]: >128 µg/mL
- MIC Enterococcus faecium (GC 2243) [3, 5]: >128 µg/mL
- MIC Enterococcus faecium (GC 4556) [3, 5]: >128 µg/mL
- MIC Enterococcus faecium (GC 4557) [3, 5]: 128 µg/mL
- MIC Enterococcus faecalis (GC 2242) ([3]; broth dilution, 18 hours at 35° C.; strain GC 2242): >128 µg/mL
- MIC Enterococcus faecalis (GC 2691) ([3]; broth dilution, 18 hours at 35° C.; strain GC 2691): >128 µg/mL
- MIC Enterococcus faecalis (GC 3059) ([3]; broth dilution, 18 hours at 35° C.; strain GC 3059): >128 µg/mL
- MIC Escherichia coli (ATCC 25922) [4]: >128 µg/mL
- MIC Escherichia coli (GC 4559) [4]: >128 µg/mL
- MIC Escherichia coli (GC 4560) [4]: 16 µg/mL

Molecule: CC(c1ccccc1)C1NC(=O)CNC(=O)C(CO)NC(=O)C(C(O)C2CNC(=N)N2C2OC(CO)C(O)C(O)C2O)NC(=O)C(C(O)C2CNC(=N)N2)NC(=O)C(Cc2ccc3oc(SCC(=O)c4ccc(Cl)cc4)nc3c2)NC1=O (centres unmarked) [Example 49]
- MIC Streptococcus pneumoniae (ATCC 6301) ([1]; strain ATCC 6301; broth dilution, 18 hours at 35° C.): 8 µg/mL (≈ 6.78 µM)
- MIC Streptococcus pneumoniae (GC 1894) ([1]; strain GC 1894; broth dilution, 18 hours at 35° C.): 8 µg/mL (≈ 6.78 µM)
- MIC Streptococcus pyogenes (GC 4563) ([1]; strain GC 4563; broth dilution, 18 hours at 35° C.): 2 µg/mL (≈ 1.69 µM)
- MIC Streptococcus agalactiae (GC 4564) ([1]; strain GC 4564; broth dilution, 18 hours at 35° C.): 4 µg/mL (≈ 3.39 µM)
- MIC Streptococcus pneumoniae (GC 4565) ([1]; strain GC 4565; broth dilution, 18 hours at 35° C.): 8 µg/mL (≈ 6.78 µM)
- MIC Staphylococcus aureus (ATCC 29213) [2]: 8 µg/mL (≈ 6.78 µM)
- MIC Staphylococcus aureus (GC 1131) [2]: 4 µg/mL (≈ 3.39 µM)
- MIC Staphylococcus aureus (GC 3051) [2]: 4 µg/mL (≈ 3.39 µM)
- MIC Staphylococcus aureus (GC 3053) [2]: 4 µg/mL (≈ 3.39 µM)
- MIC Staphylococcus aureus (GC 4541) [2]: 4 µg/mL (≈ 3.39 µM)
- MIC Staphylococcus aureus (GC 4542) [2]: 4 µg/mL (≈ 3.39 µM)
- MIC Staphylococcus aureus-SMITH (GC 4543) [2]: 2 µg/mL (≈ 1.69 µM)
- MIC Staphylococcus aureus (GC 4544) [2]: 4 µg/mL (≈ 3.39 µM)
- MIC Staphylococcus aureus (GC 4545) [2]: 2 µg/mL (≈ 1.69 µM)
- MIC Staphylococcus haemolyticus (GC 4546) [2]: 1 µg/mL (≈ 0.847 µM)
- MIC Coagulase Negative Staphylococcus (GC 4547) [2]: 4 µg/mL (≈ 3.39 µM)
- MIC Coagulase Negative Staphylococcus (GC 4548) [2]: 2 µg/mL (≈ 1.69 µM)
- MIC Coagulase Negative Staphylococcus (GC 4549) [2]: 1 µg/mL (≈ 0.847 µM)
- MIC Coagulase Negative Staphylococcus (GC 4551) [2]: 4 µg/mL (≈ 3.39 µM)
- MIC Enterococcus faecalis (ATCC 29212) ([3]; strain ATCC 29212; broth dilution, 18 hours at 35° C.): 16 µg/mL (≈ 13.6 µM)
- MIC Enterococcus faecalis (GC 2242) ([3]; strain GC 2242; broth dilution, 18 hours at 35° C.): 16 µg/mL (≈ 13.6 µM)
- MIC Enterococcus faecium (GC 2243) ([3]; strain GC 2243; broth dilution, 18 hours at 35° C.): 8 µg/mL (≈ 6.78 µM)
- MIC Enterococcus faecalis (GC 2691) ([3]; strain GC 2691; broth dilution, 18 hours at 35° C.): 16 µg/mL (≈ 13.6 µM)
- MIC Enterococcus faecalis (GC 3059) ([3]; strain GC 3059; broth dilution, 18 hours at 35° C.): 32 µg/mL (≈ 27.1 µM)
- MIC Enterococcus faecalis (GC 4552) ([3]; strain GC 4552; broth dilution, 18 hours at 35° C.): 2 µg/mL (≈ 1.69 µM)
- MIC Enterococcus faecalis (GC 4553) ([3]; strain GC 4553; broth dilution, 18 hours at 35° C.): 4 µg/mL (≈ 3.39 µM)
- MIC Enterococcus faecalis (GC 4554) ([3]; strain GC 4554; broth dilution, 18 hours at 35° C.): 16 µg/mL (≈ 13.6 µM)
- MIC Enterococcus faecium (GC 4556) ([3]; strain GC 4556; broth dilution, 18 hours at 35° C.): 8 µg/mL (≈ 6.78 µM)
- MIC Enterococcus faecium (GC 4557) ([3]; strain GC 4557; broth dilution, 18 hours at 35° C.): 2 µg/mL (≈ 1.69 µM)
- MIC Enterococcus avium (GC 4558) ([3]; strain GC 4558; broth dilution, 18 hours at 35° C.): 4 µg/mL (≈ 3.39 µM)
- MIC Enterococcus faecalis (GC 6189) ([3]; strain GC 6189; broth dilution, 18 hours at 35° C.): 16 µg/mL (≈ 13.6 µM)
- MIC Escherichia coli (ATCC 25922) ([4]; strain ATCC 25922, broth dilution): 16 µg/mL (≈ 13.6 µM)
- MIC Escherichia coli (GC 4559) ([4]; strain GC 4559, broth dilution): 8 µg/mL (≈ 6.78 µM)
- MIC Escherichia coli (GC 4560) ([4]; strain GC 4560, broth dilution): 4 µg/mL (≈ 3.39 µM)
